What is called IC50 is the concentration that inhibits the measured activity by half. What is called solubility is the dissolved amount per volume that the medium holds. In general, half-life refers to the time needed for the level to fall by half in the phase considered. Lower therefore signals fast loss. What is called bioavailability is the share of a dose that reaches the circulation, judged against a reference dose that is usually intravenous.

Structures are written as SMILES. Converted amounts (≈) assume the structure as drawn. The source made the active and inactive calls.

The values below come from ChEMBL document CHEMBL6096702, “Discovery of a Novel p38α-MK2 Complex Inhibitor as a Potential Choice for Autoimmune Diseases” (J Med Chem, 2025).

The target of data set [1] is Cytochrome P450 3A4 (Homo sapiens, UniProt P08684). Kind of data set: Inhibition of CYP3A4 in human liver microsomes using midazolam as substrate in presence of NADP by LC-MS/MS analysis. The class given is ADME, Microsome. Background: Liver microsomes are vesicles of endoplasmic reticulum, rich in cytochrome P450 enzymes.
Data set [2] can be described thus: Selectivity ratio of IC50 for inhibition of N-terminal GST-tagged wildtype human P38alpha (4 to 152 residues) extracted from Escherichia coli/GST-tagged PRAK (unknown origin) to IC50 for inhibition of N-terminal GST-tagged wildtype human P38alpha (4 to 152 residues) extracted from Escherichia coli/GST-tagged MK2 (unknown origin).
A short description of data set [3]: Solubility of compound in PBS at pH 7.4 measured after 4 to 24 hrs by LC-MS analysis. The class given is physicochemical. Conditions: time 4-24 hrs.
The nature of data set [4]: Volume of distribution at steady state in male Beagle dog at 1 mg/kg, iv measured after 24 hrs by LC-MS/MS analysis. It counts as ADME, organism-based, Canis lupus familiaris. The conditions noted are these: in vivo, read-out: Vdss.
Data set [5] addresses Cytochrome P450 2C19 (Homo sapiens, UniProt P33261). Kind of data set: Inhibition of CYP2C19 in human liver microsomes using mephenytoin as substrate in presence of NADP by LC-MS/MS analysis. The class given is ADME, Microsome.
Data set [6] is described as follows: Half-life in male Beagle dog at 1 mg/kg, iv measured after 24 hrs by LC-MS/MS analysis. It counts as ADME, organism-based, Canis lupus familiaris. Conditions: in vivo.
The subject of data set [7] is Rattus norvegicus. As to the kind of experiment: Antiarthritic activity in Mycobacterium tuberculosis H37R-induced female Lewis rat model of arthritis at 1 mg/kg, po administered twice daily for 15 days starting from day 13 after adjuvant administration. The class given is functional, organism-based. Conditions: time 15.0 day.
The target of data set [8] is Voltage-gated inwardly rectifying potassium channel KCNH2 (Homo sapiens, UniProt Q12809). As to the kind of experiment: Inhibition of human ERG in HEK293 cells. It counts as toxicity, cell-based.
Data set [9] concerns PBMC. As to the kind of experiment: Inhibition of LPS-induced IL-6 production in human PBMC cells at 0.01 to 10000 nM preincubated with compound for 1 hrs followed by LPS addition and measured after 4 hrs. It counts as functional, cell-based. Conditions: dose 0.01-10000 nM, time 5.0 hrs.
Data set [10] can be described thus: Oral bioavailability in male Beagle dog at 2 mg/kg measured after 24 hrs by LC-MS/MS analysis. It counts as ADME, organism-based, Canis lupus familiaris. Conditions: in vivo.
For data set [11], the target named is T1, Cytochrome P450 1A2 (Homo sapiens, UniProt P05177).
T1 sequence (P05177 whole entry): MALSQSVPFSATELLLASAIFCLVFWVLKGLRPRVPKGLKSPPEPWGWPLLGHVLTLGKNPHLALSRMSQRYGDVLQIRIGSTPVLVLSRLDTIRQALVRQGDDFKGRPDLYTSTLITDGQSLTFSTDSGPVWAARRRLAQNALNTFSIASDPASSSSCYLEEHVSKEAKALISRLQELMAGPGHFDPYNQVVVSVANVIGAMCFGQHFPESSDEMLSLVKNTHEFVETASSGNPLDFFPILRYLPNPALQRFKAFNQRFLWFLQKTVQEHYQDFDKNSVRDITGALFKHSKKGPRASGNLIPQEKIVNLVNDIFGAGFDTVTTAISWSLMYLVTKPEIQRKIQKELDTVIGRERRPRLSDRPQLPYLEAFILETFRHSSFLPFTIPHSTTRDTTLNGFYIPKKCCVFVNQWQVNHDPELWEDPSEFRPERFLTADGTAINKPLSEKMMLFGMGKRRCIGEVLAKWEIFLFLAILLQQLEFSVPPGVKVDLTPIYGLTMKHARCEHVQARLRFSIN
As to the kind of experiment: Inhibition of CYP1A2 in human liver microsomes using phenacetin as substrate in presence of NADP by LC-MS/MS analysis. It counts as ADME, Microsome.

Sequence of Cytochrome P450 3A4 (P08684 whole entry, the tested form may be a part): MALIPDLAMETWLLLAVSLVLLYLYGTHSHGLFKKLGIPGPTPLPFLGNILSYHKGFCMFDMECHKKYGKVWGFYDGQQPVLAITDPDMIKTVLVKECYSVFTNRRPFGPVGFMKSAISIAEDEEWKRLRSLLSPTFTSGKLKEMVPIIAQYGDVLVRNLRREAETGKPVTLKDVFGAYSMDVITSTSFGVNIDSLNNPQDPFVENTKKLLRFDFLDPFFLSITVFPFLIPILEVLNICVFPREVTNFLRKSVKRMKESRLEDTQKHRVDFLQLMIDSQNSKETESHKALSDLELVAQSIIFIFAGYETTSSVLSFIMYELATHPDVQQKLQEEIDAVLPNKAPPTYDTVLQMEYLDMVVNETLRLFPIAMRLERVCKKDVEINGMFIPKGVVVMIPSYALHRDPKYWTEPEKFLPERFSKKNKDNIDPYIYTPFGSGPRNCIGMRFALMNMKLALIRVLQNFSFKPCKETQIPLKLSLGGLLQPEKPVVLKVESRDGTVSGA
Sequence of Cytochrome P450 2C19 (P33261 whole entry): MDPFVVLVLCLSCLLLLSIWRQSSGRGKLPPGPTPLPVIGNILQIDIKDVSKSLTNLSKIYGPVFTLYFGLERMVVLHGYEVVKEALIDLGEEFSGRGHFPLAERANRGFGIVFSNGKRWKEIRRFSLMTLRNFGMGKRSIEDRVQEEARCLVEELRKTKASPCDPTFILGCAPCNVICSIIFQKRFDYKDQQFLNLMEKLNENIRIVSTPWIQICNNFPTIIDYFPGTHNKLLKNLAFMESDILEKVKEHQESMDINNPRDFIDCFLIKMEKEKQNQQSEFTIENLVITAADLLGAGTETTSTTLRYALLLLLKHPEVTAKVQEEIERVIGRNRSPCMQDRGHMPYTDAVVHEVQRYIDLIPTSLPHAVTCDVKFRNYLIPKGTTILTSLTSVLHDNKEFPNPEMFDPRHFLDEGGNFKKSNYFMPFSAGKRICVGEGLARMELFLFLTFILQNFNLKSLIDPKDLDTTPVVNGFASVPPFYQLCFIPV
Sequence of Voltage-gated inwardly rectifying potassium channel KCNH2 (Q12809 whole entry): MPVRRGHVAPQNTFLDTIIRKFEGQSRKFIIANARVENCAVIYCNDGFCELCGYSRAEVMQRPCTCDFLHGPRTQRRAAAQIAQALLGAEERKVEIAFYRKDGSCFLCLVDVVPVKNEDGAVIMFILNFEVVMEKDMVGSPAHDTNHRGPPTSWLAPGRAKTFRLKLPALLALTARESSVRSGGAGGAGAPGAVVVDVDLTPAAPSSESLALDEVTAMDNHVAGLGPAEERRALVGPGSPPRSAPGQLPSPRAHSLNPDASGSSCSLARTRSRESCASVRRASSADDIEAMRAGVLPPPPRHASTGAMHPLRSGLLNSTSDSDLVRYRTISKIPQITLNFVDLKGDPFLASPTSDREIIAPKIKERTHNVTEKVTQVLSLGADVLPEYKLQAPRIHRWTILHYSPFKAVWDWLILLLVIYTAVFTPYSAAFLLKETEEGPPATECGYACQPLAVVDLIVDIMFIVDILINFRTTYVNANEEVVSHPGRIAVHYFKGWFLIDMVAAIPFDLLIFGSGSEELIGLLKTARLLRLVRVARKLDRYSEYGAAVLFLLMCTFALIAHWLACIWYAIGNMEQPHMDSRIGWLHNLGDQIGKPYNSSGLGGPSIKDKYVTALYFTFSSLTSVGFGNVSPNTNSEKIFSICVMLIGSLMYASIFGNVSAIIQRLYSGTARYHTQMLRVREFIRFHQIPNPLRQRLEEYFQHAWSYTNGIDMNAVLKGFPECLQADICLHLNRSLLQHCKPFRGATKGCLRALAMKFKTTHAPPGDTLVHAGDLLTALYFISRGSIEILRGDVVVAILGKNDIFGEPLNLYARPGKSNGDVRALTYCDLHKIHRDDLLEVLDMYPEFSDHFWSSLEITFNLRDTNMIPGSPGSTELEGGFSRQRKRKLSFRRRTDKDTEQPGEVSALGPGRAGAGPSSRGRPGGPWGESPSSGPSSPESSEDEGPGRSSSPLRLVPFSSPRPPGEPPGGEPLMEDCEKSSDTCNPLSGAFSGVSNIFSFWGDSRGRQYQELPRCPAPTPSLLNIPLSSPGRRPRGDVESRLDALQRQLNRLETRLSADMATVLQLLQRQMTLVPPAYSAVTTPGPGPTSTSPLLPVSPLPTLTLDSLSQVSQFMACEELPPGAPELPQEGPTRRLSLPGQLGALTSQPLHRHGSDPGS

As to `Cc1cnc(-c2ccnc(C(C)(C)O)n2)c(F)c1-n1c(C)cc(O[C@@H](C)c2ncc(F)cc2F)c(C)c1=O`, the IC50 in [1] is > 40 µM; in [5], > 40 µM; in data set [8], > 30 µM; in data set [11], > 40 µM. In [2], the Ratio IC50 was 1170. Further, the concentration in solution in [3] (solubility) came to 88.3 µg/mL (≈ 168 µM). Besides, the Vd in data set [4] came to 0.8 L/kg. For the same compound, the half-life in data set [6] was 2.9 h. Besides, the outcome in data set [7] was Active. For the same compound, the inhibition entry in data set [9] was “Active”. For the same compound, in [10], the bioavailability came to 68%.
